Data as given in patent US20120269797A1, “METHOD FOR INHIBITING THE MATURATION OF DENDRITIC CELLS” (priority 2009, published 2012).

Assays:
[1] = test system: murine DCs; experiment: maturation of murine dendritic cells, surface molecules by FACS analysis; assay type: cell-based; details: different concentrations, Day 8 to Day 10, matured last 16 hours with LPS; FIG. 1
Experimental: Murine DCs were incubated with different concentrations of the proteasome inhibitor Velcade® from Day 8 to Day 10, and were matured during the last 16 hours, in the presence of LPS. In order to determine the phenotypic DC maturation, in other words the increase in the expression level of specific cell surface molecules, the cells were subsequently characterized using monoclonal antibodies and FACS analysis. […] However, only completely matured DCs are able to induce potent immune responses. The control (mock) remained untreated.

[2] = test system: murine DCs generated ex vivo
Experimental: In order to test the effect of PIs also in vivo, Velcade® was applied to mice in vivo, then bone marrow was isolated and the typical bone marrow DCs were generated from this.
C57B1/6 mice were injected with 0.75 mg/kg Velcade® i.v. three times. The injection took place within five days, with an interval of one day, in each instance. An hour after the last injection, removal of the bone marrow from femur and tibia took place to generate the murine DCs. On Day 8 of cultivation, the cells were matured with LPS. On the subsequent day, the expression of the surface molecules was investigated by means of FACS analysis.

[3] = test system: mature DCs; experiment: mixed leukocyte reaction (MLR) assay, T cell stimulatory capacity of mature DCs; assay type: cell-based; details: see FIGS. 3 and 4
Source text: The T cell stimulatory capacity of mature DCs can be tested in vitro by means of the so-called “mixed leukocyte reaction” (MLR) assay. […] This functional test therefore reflects the phenotypic effects of the PI treatment—namely the blockade of full maturation of the DCs—very well.

[4] = test system: human DCs; experiment: DC-mediated T cell stimulation by MLR assay, human DCs; assay type: cell-based; details: DCs incubated during maturation; FIG. 4
Experimental: The T cell stimulatory capacity of mature DCs can be tested in vitro by means of the so-called “mixed leukocyte reaction” (MLR) assay. […] Human DCs were incubated with Velcade® during maturation and subsequently, the DC-mediated T cell stimulation was investigated by means of MLR assay.

[5] = test system: human DCs; details: two concentrations added Day 5, matured two days with maturation cocktail; FIG. 2
Experimental: Immature human DCs were mixed with two different concentrations of Velcade® on Day 5, and subsequently matured for another two days using the maturation cocktail. Subsequently, the expression of the surface molecules that are typical for the maturation of human DCs was analyzed. […] The control (mock) remained untreated.

[6] = test system: murine DCs / allogeneic murine T cells; experiment: DC-mediated T cell proliferation, allogeneic murine T cells with TNF-matured murine DCs; assay type: cell-based; details: 72 hours, three different concentrations; FIG. 3
Experimental: Allogeneic murine T cells were incubated with TNF-matured murine DCs for 72 hours, in the presence of three different concentrations of Velcade®.

[7] = test system: human DC/T cell co-cultures; experiment: cytokine production in human DC/T cell co-cultures (CBA technology); assay type: cell-based
Experimental: During DC-mediated T cell stimulation, the production of cytokines (among them IFN, IL-2, IL-6, TNF) takes place, which can be detected in the culture top fraction. […] Immature human […] were incubated with Velcade®, matured for 48 hours, and subsequently cultivated together with allogeneic human T cells for another 72 hours. Subsequently, cell culture top fractions were taken and the release of pro-inflammatory cytokines was analyzed by means of CBA technology. […] The control (mock) remained untreated.

[8] = test system: murine (DC:T) cell co-cultures; experiment: cytokine and chemokine production in murine DC/T cell co-cultures; assay type: cell-based; details: 72 hours, different concentrations; FIG. 5
Experimental: The production of INFy and MCP-1 was determined from cell culture top fractions of murine (DC:T) cell co-cultures. For this purpose, DCs were incubated with allogeneic T cells, in the presence of different concentrations of Velcade®, for 72 hours. […] The control (mock) remained untreated.

[9] = 0.75 mg/kg i.v. three times, FIG. 7b

## CC(C)C[C@H](NC(=O)[C@H](Cc1ccccc1)NC(=O)c1cnccn1)B(O)O [Velcade®]
[1]
  surface expression of CD25, CD40, CD80, CD86 and CD83: very clearly reduces
[2]; 0.75 mg/kg i.v. three times, DCs matured with LPS on Day 8, FIG. 7a
  surface expression of CD25, CD40, CD80 and CD86: reduction in the surface expression
[2]; [9]
  expression of MHC Class II molecules: also reduced
  percentage of MHC II highly expressing cells:MHC II interm. expressing cells: shifted in favor of the MCH II interm. expressing cells
[2]; applied in vivo to mice, TNF-stimulated and LPS-stimulated DCs, FIG. 7
  population of the mature DCs (CD40, CD25, CD83 highly expressing): reduces the population of the mature DCs
[3]
  DC-mediated T cell stimulation: able to block DC-mediated T cell stimulation
[4]
  DC-mediated T cell stimulation (stimulatory capacity of DCs): clear reduction in their stimulatory capacity
[5]
  expression of CD80, CCR7, CD25, MHC I and CD83: clear reduction
[6]
  DC-mediated T cell proliferation: reduces the DC-mediated T cell proliferation in a manner that is dependent on dose
[7]; culture top fraction, summary of FIGS. 5 and 6 (murine and human)
  cytokine production (IFN, IL-2, IL-6, TNF) during DC-mediated T cell stimulation: able to block this cytokine production, as a function of concentration
[7]; matured 48 hours, co-culture with allogeneic T cells 72 hours, FIG. 6
  secretion of IL-2, IL-6, INFy and TNF: clearly reduced secretion
[8]
  expression of INFy and MCP-1 in cell culture top fractions: clearly reduced expression
